Patent US20150126467A1, “USE OF ALGINATE OLIGOMERS TO ENHANCE THE EFFECTS OF ANTIFUNGAL AGENTS” (AlgiIPharma AS, priority 2011, published 2015)
≈ marks a conversion by molar mass, not a printed value. Where two headings read alike, the source gives them in different places. One block for each compound: values may come before it.

Columns and labels:
Format in all cases: cell-based
[1] = test system: various Aspergillus species; experiment: Robotic MIC assay, summary over species (Example 4); conditions: Aspergillus species tested
Method: Aspergillus sp. was grown at 30° C. for 96 h on YM-agar. Spores and aerial mycelium was cut out from the agar, suspended in 1 ml YM-broth and dispersed with glass beads (1 mm) in a mini bead beater for 2 min. Glycerol was added to the suspension to 10% and frozen at −80° C.
Each batch of frozen stock culture was then characterized in separate growth experiments using Mueller-Hinton broth to determine the minimum amount of inoculum giving satisfactory growth after 48 h under the conditions relevant for the MIC assay. This inoculation procedure is used in order to reduce day to day variation in bioassays.
Robotic minimum inhibitory concentration (MIC) assay was performed as follows. OligoG CF-5/20 was dissolved in medium (Mueller-Hinton broth) to 1.25 times of the desired assay concentrations (2, 6 and 10%). […].
Two-fold serial dilutions of antifungal agents were made in medium with different concentrations of OligoG CF-5/20, and the solutions were placed in four parallel wells in Nunc 384-well micro plates (30 μl per well in Nunc 242757 microplates). A group of 8 wells with no addition of antifungal agents for each OligoG CF-5/20 concentration was included on each micro plate as growth reference. Each well in the 384-well assay plates was added 7.5 μl of the MH medium inoculated with frozen stock culture of the relevant strains.
The microplates were placed in plastic bags and incubated without shaking at 34° C. The optical density at 600 nm in the microwells was measured after approximately 24 and 48 hours of incubation. […]

[2] = test system: C. krusei 141/03 (candidosis); experiment: Robotic MIC assay, Candida strains (Example 2); conditions: Pichia kudriavzevii, 48 h, Mueller-Hinton broth, read-out: Minimum Inhibitory Concentration (MIC)
Method: (§1) A robotic MIC Assay was performed as follows. OligoG CF-5/20 were dissolved in medium (Mueller-Hinton broth or M19 broth depending on experiment) to 1.25 times of the desired assay concentrations (2, 6 and 10%). The antifungal agents under test were dissolved in medium without OligoG CF-5/20 and in medium with OligoG CF-5/20 at a concentration of 1.25 times the highest desired assay concentrations. For experiments where the effect of adding different concentrations of Na^+ was investigated, NaCl was dissolved in medium to the desired concentrations (10, 30 and 50 mM).
(§2) Two-fold serial dilutions of antifungal agents were made in medium with different concentrations of OligoG CF-5/20, and the solutions were placed in four parallel wells in Nunc 384-well micro plates (30 μl per well in Nunc 242757 microplates). A group of 8 wells with no addition of antifungal agents for each OligoG CF-5/20 concentration was included on each microplate as growth reference. To each well in the 384-well assay plates was added 7.5 μl of medium inoculated with a frozen stock culture of Candida albicans (strain CCUG 39343).
(§3) The micro plates were placed in plastic bags and incubated without shaking at 34° C. The optical density at 600 nm in the microwells was measured after approximately 13, 18, 24 and 34 hours of incubation, and the relative growth yield in each well was calculated based on the growth in the reference groups.
(§4) The robotic assay described in Example 1 was employed in this Example. Strains were grown in Mueller-Hinton broth (LAB114 from Lab M Limited) and MIC values (μg ml-1) were determined for each antifungal after incubation for 48 h in the presence of 0, 2, 6 and 10% OligoG CF-5/20 G-fragments. […] OligoG CF-5/20 G-fragments were provided by AlgiPharma AS, Norway.
(§5) Candida strains used were as follows: • C. albicans CCUG 39343 (strain from culture collection) • C. parapsillosis ATCC 22019T (strain from culture collection) • C. krusei 141/03 (candidosis) • C. krusei 249/03(2) (ulceration) • C. lusitaniae 994/01(2) (candidosis) • C. tropicalis 12 (vaginal) • C. tropicalis 75 (vaginal) • C. tropicalis 519468 (urinary) • C. tropicalis 544123 (urinary) • C. tropicalis 250/03 (candidosis) • C. tropicalis AG1 (oral) • C. tropicalis T2.2 (oral)

[3] = test system: C. tropicalis 75 (vaginal); experiment: Robotic MIC assay, Candida strains (Example 2); conditions: Candida tropicalis, 48 h, Mueller-Hinton broth, read-out: Minimum Inhibitory Concentration (MIC)
Method: as §1, §2, §3, §4, §5

[4] = test system: C. tropicalis T2.2 (oral); experiment: Robotic MIC assay, Candida strains (Example 2); conditions: Candida tropicalis, 48 h, Mueller-Hinton broth, read-out: Minimum Inhibitory Concentration (MIC)
Method: as §1, §2, §3, §4, §5

C. tropicalis AG1 (oral) = experiment: Robotic MIC assay, Candida strains (Example 2); conditions: Candida tropicalis, 48 h, Mueller-Hinton broth, read-out: Minimum Inhibitory Concentration (MIC)
Method: as §1, §2, §3, §4, §5

[5] = test system: C. tropicalis 12 (vaginal); experiment: Robotic MIC assay, Candida strains (Example 2); conditions: Candida tropicalis, 48 h, Mueller-Hinton broth, read-out: Minimum Inhibitory Concentration (MIC)
Method: as §1, §2, §3, §4, §5

C. albicans CCUG 39343 = experiment: Robotic MIC assay, Candida strains (Example 2); conditions: Candida albicans, CCUG39343, 48 h, Mueller-Hinton broth, read-out: Minimum Inhibitory Concentration (MIC)
Method: as §1, §2, §3, §4, §5

[6] = test system: C. tropicalis 544123 (urinary); experiment: Robotic MIC assay, Candida strains (Example 2); conditions: Candida tropicalis, 48 h, Mueller-Hinton broth, read-out: Minimum Inhibitory Concentration (MIC)
Method: as §1, §2, §3, §4, §5

[7] = test system: C. tropicalis 519468 (urinary); experiment: Robotic MIC assay, Candida strains (Example 2); conditions: Candida tropicalis, 48 h, Mueller-Hinton broth, read-out: Minimum Inhibitory Concentration (MIC)
Method: as §1, §2, §3, §4, §5

[8] = test system: C. krusei 249/03(2) (ulceration); experiment: Robotic MIC assay, Candida strains (Example 2); conditions: Pichia kudriavzevii, 48 h, Mueller-Hinton broth, read-out: Minimum Inhibitory Concentration (MIC)
Method: as §1, §2, §3, §4, §5

[9] = test system: C. lusitaniae 994/01(2) (candidosis); experiment: Robotic MIC assay, Candida strains (Example 2); conditions: Clavispora lusitaniae, 48 h, Mueller-Hinton broth, read-out: Minimum Inhibitory Concentration (MIC)
Method: as §1, §2, §3, §4, §5

[10] = test system: C. tropicalis 250/03 (candidosis); experiment: Robotic MIC assay, Candida strains (Example 2); conditions: Candida tropicalis, 48 h, C. tropicalis 250/03 Candiosis, Mueller-Hinton broth, read-out: Minimum Inhibitory Concentration (MIC)
Method: as §1, §2, §3, §4, §5

Structure (SMILES): C[C@@H]1[C@H](O)[C@@H](C)/C=C/C=C/C=C/C=C/C=C/C=C/C=C/[C@H](O[C@@H]2O[C@H](C)[C@@H](O)[C@H](N)[C@@H]2O)C[C@@H]2O[C@](O)(C[C@@H](O)C[C@@H](O)[C@H](O)CC[C@@H](O)C[C@@H](O)CC(=O)O[C@H]1C)C[C@H](O)[C@H]2C(=O)O [Amphotericin B, amphotericin B]
effect of addition of OligoG CF-5/20 on MIC values [1]: reduction in MIC values

MIC ([2]; 0% OligoG): 128 µg/mL (≈ 418 µM)
MIC ([2]; 2% OligoG): 64 µg/mL (≈ 209 µM)
MIC ([2]; 6% OligoG): 64 µg/mL (≈ 209 µM)
MIC ([2]; 10% OligoG): 64 µg/mL (≈ 209 µM)
MIC ([3]; 0% OligoG): 2 µg/mL (≈ 6.53 µM)
MIC ([3]; 2% OligoG): 1 µg/mL (≈ 3.27 µM)
MIC ([3]; 6% OligoG): 0.5 µg/mL (≈ 1.63 µM)
MIC ([3]; 10% OligoG): 0.25 µg/mL (≈ 0.816 µM)
MIC ([4]; 0% OligoG): > 128 µg/mL
MIC ([4]; 2% OligoG): 0.5 µg/mL (≈ 1.63 µM)
MIC ([4]; 6% OligoG): 0.25 µg/mL (≈ 0.816 µM)
MIC ([4]; 10% OligoG): < 0.125 µg/mL
MIC (C. tropicalis AG1 (oral); 0% OligoG): 128 µg/mL (≈ 418 µM)
MIC (C. tropicalis AG1 (oral); 2% OligoG): > 128 µg/mL
MIC (C. tropicalis AG1 (oral); 6% OligoG): 0.5 µg/mL (≈ 1.63 µM)
MIC (C. tropicalis AG1 (oral); 10% OligoG): 0.125 µg/mL (≈ 0.408 µM)
MIC ([5]; 0% OligoG): 1 µg/mL (≈ 3.27 µM)
MIC ([5]; 2% OligoG): 1 µg/mL (≈ 3.27 µM)
MIC ([5]; 6% OligoG): < 0.125 µg/mL
MIC ([5]; 10% OligoG): < 0.125 µg/mL
MIC (C. albicans CCUG 39343; 0% OligoG): 16 µg/mL (≈ 52.2 µM)
MIC (C. albicans CCUG 39343; 2% OligoG): 16 µg/mL (≈ 52.2 µM)
MIC (C. albicans CCUG 39343; 6% OligoG): 8 µg/mL (≈ 26.1 µM)
MIC (C. albicans CCUG 39343; 10% OligoG): 4 µg/mL (≈ 13.1 µM)
MIC ([6]; 0% OligoG): 1 µg/mL (≈ 3.27 µM)
MIC ([6]; 2% OligoG): 1 µg/mL (≈ 3.27 µM)
MIC ([6]; 6% OligoG): 0.5 µg/mL (≈ 1.63 µM)
MIC ([6]; 10% OligoG): 0.25 µg/mL (≈ 0.816 µM)
MIC ([7]; 0% OligoG): 128 µg/mL (≈ 418 µM)
MIC ([7]; 2% OligoG): 1 µg/mL (≈ 3.27 µM)
MIC ([7]; 6% OligoG): 0.5 µg/mL (≈ 1.63 µM)
MIC ([7]; 10% OligoG): 0.25 µg/mL (≈ 0.816 µM)
MIC ([9]; 0% OligoG): 0.5 µg/mL (≈ 1.63 µM)
MIC ([9]; 2% OligoG): 0.25 µg/mL (≈ 0.816 µM)
MIC ([9]; 6% OligoG): < 0.125 µg/mL
MIC ([9]; 10% OligoG): < 0.125 µg/mL
MIC ([10]; 0% OligoG): 8 µg/mL (≈ 26.1 µM)
MIC ([10]; 2% OligoG): 4 µg/mL (≈ 13.1 µM)
MIC ([10]; 6% OligoG): 2 µg/mL (≈ 6.53 µM)
MIC ([10]; 10% OligoG): 2 µg/mL (≈ 6.53 µM)
Structure (SMILES): OC(Cn1cncn1)(Cn1cncn1)c1ccc(F)cc1F [Fluconazole, fluconazole]
MIC ([8]; 0% OligoG): 8 µg/mL (≈ 26.1 µM)
MIC ([8]; 2% OligoG): 4 µg/mL (≈ 13.1 µM)
MIC ([8]; 6% OligoG): 2 µg/mL (≈ 6.53 µM)
MIC ([8]; 10% OligoG): 1 µg/mL (≈ 3.27 µM)
